From patent USRE39634E1, “Bisarylimidazoly fatty acid amide hydrolase inhibitors” (Bristol-Myers Squibb Company, priority 2001, dated 2007)

Key:
rat = assay: Rat formalin test (acute and chronic chemo-induced pain); format: in vivo
Method: FIG. 1A illustrates results from a rat formalin model used for testing acute chemo-induced pain. The single asterisk (*) applies when p is less than 0.05.
FIG. 1B illustrates results from a rat formalin model used for testing chronic chemo-induced pain. The single asterisk (*) applies when p is less than 0.05.
In FIG. 1., example 1, was active in phase I (acute phase) and phase II (chronic phase) of the rat formalin test. In animals that received 25 mg/kg, i.v, of Example 1, the number of paw flinches was reduced by nearly 40% in the first 10 minutes after administration of formalin. Paw flinches were reduced by approximately 30% over the following 50 minutes.

animals = assay: Hargreaves Test (acute thermal pain); format: in vivo; conditions: FIG. 2
Description: FIG. 2 illustrates results from the Hargreaves Test used for measuring acute thermal pain. The single asterisk (*) applies when p is less than 0.05 whereas the double asterisk (**) applies when p is less than 0.01. n=6.

[1] = test system: animals with a neuropathic injury; assay: Chung model of neuropathic pain; format: in vivo
Description: FIG. 3 illustrates results from the Chung Model used for measuring neuropathic pain. The single asterisk (*) applies when p is less than 0.05 whereas the double asterisk (**) applies when p is less than 0.01. n=9-10.

human FAAH = biological target: T1, human FAAH (Homo sapiens, UniProt O00519); assay: Determination of FAAH activity (membrane homogenates of H4-FAAH cells, [3H]-anandamide hydrolysis); format: biochemical; conditions: transfected human FAAH, H4-FAAH cell membranes, 10 μM anandamide, room temperature, one hour
T1 construct: expressed in transfected cells; host or cells: H4 cells stably transfected with human FAAH (Geneticin selection); crude membrane homogenates
T1 sequence (O00519 1-579): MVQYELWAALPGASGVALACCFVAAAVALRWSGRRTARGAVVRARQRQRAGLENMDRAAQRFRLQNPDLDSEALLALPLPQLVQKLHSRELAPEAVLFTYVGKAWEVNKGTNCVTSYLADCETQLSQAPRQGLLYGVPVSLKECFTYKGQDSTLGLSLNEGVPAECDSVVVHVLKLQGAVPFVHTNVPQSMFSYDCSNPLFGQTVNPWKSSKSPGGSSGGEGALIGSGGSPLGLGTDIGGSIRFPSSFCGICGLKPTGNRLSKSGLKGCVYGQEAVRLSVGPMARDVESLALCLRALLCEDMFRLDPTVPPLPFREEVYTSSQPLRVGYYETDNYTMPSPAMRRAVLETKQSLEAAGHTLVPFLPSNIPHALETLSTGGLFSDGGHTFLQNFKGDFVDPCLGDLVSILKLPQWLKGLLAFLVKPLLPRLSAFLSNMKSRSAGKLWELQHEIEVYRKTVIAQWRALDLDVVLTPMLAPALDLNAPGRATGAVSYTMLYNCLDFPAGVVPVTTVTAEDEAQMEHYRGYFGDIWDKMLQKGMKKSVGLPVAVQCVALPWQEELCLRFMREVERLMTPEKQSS
Method: Homogenates of crude membranes were prepared from H4 cells that express transfected human FAAH (H4-FAAH cells). Briefly, cells were grown in DMEM supplemented with 10% FBS and Geneticin at a final concentration of 500 μg/ml (Gibco BRL, Rockville, Md.). Confluent cultures of H4-FAAH cells were rinsed twice with phosphate-buffered saline [138 mM NaCl, 4.1 mM KCl, 5.1 mM Na2PO4, 1.5 mM KH2PO4 (pH 7.5), 37° C.] and incubated for 5-10 min. at 4° C. in lysis buffer [1 mM sodium bicarbonate]. Cells were transferred from plates to polypropylene tubes (16×100 mm), homogenized and centrifuged at 32,000×g for 30 min. Pellets were resuspended by homogenization in lysis buffer and centrifuged at 32,000×g for 30 min. Pellets were resuspended in lysis buffer (15-20 μg protein/ml) then stored at −80° C. until needed. On the day of an experiment, membranes were diluted to 2.67 μg protein/ml in 125 mM Tris-Cl, pH 9.0
Activity of FAAH was measured using a modification of the method described by Omeir et al., 1995 (Life Sci 56:1999, 1995). Membrane homogenates (240 ng protein) were incubated at room temperature for one hour with 1.67 nM anandamide [ethanolamine 1-^3H] (American Radiolabeled Chemical Inc., St Louis, Mo.) and 10 μM anandamide (Sigma/RBI, St. Louis, Mo.) in the absence and presence of inhibitors. The reaction was stopped by the addition of 1 volume of a solution of methanol and dichloroethane (1:1). The mixture was shaken and then centrifuged at 1000×g for 15 min. to separate the aqueous and organic phases. An aliquot of the aqueous phase, containing [^3H]-ethanolamine was withdrawn and counted by scintillation spectroscopy. Data were expressed as the percentage of [^3H]-ethanolamine formed versus vehicle, after subtraction of the background radioactivity determined in the presence of 10 μM arachidonyl trifluoromethyl ketone (ATFMK), an inhibitor of FAAH. IC50 values were determined using a four-parameter logistic equation for dose-response curves.

Which “reduction of number of paw flinches” value (rat; 25 mg/kg, i.v., first 10 minutes after administration of formalin) does the source give for `Cc1nc(-c2ccccc2)c(-c2ccccc2)n1CCCCCCNC(=O)Oc1ccccc1F` [Example 1, [6-(2-Methyl-4,5-diphenyl-imidazol-1-yl)-hexyl]-carbamic acid 2-fluoro-phenyl ester] here?
The value was roughly 40%.

And the “reduction of paw flinches” value (rat; 25 mg/kg, i.v., following 50 minutes)?
The value was “approximately 30%”.

What about the “activity in phase I (acute phase) and phase II (chronic phase) of the rat formalin test” value (rat; FIG. 1) of the same compound?
The value was “active”.

And the “latency to paw withdrawal” value (animals)?
Its value is “increased significantly”.

What about the “onset of anti-neuropathic effect” value ([1]; 20 mg/kg, versus 100 mg/kg gabapentin) of the same compound?
Its value is “earlier onset of action compared to 100 mg/kg gabapentin”.

And the “threshold for withdrawal of the injured paw” value ([1]; light touch stimulus, FIG. 3)?
Its value is “increased (toward normal) in a dose-dependent fashion”.

And the IC50 (human FAAH)?
The IC50 was less than 10 nM.

For `CCOC(=O)NCCCCCCn1c(C)nc(-c2ccccc2)c1-c1ccccc1` [Example 45, [6-(2-Methyl-4,5-diphenyl-imidazol-1-yl)-hexyl]-carbamic acid ethyl ester], which IC50 (human FAAH) is on record?
Its IC50 is 100 to 1000 nM.

For `Cc1ccccc1OC(=O)NCCCCCCn1c(C)nc(-c2ccccc2)c1-c1ccccc1` [Example 14, [6-(2-Methyl-4,5-diphenyl-imidazol-1-yl)-hexyl]-carbamic acid o-tolyl ester], which IC50 (human FAAH) is on record?
The IC50 was less than 10 nM.

With `COc1ccc(OC(=O)NCCCCCCCn2c(C)nc(-c3ccccc3)c2-c2ccccc2)cc1` [Example 25, [7-(2-Methyl-4,5-diphenyl-imidazol-1-yl)-heptyl]-carbamic acid 4-methoxy-phenyl ester] as the compound, how does the IC50 (human FAAH) read?
Its IC50 is 10 to 100 nM.

For `Cc1nc(-c2ccccc2)c(-c2ccccc2)n1CCOc1ccc(NC(=O)Oc2ccc(F)cc2)cc1` [Example 62, {4-[2-(2-Methyl-4,5-diphenyl-imidazol-1-yl)-ethoxy]-phenyl}-carbamic acid 4-fluoro-phenyl ester], which IC50 (human FAAH) is on record?
Its IC50 is 1000 to 10000 nM.
